From US9562017B2, “Hydrogen sulfate salt” (Array BioPharma Inc., priority 2005, dated 2017)
Structures can show the parent of a compound that is named as a salt.

Legend:
BCS classification = type: physicochemical; conditions: free base
Text: BCS Class 4 compounds normally have low bioavailability due to both low dissolution rate and permeability, and the limitation of permeability on absorption means that such salts would not usually be expected exert a substantial impact on absorption (See for example: Dressman et al. (2001) Pharm Tech. July: 68).

[1] = Plasma levels of Compound 1 in fasted dogs after oral dispersion doses, salt versus free base; type: in vivo, beagle dogs; conditions: crystalline salt compared to the free base and other salts
Protocol: Single doses of 150 mg were administered orally to fasted beagle dogs weighing 12-17 kg and about 2 to 6 years old on each of three dosing days. Each dosing day was 1 week apart.
All formulations were prepared extemporaneously just prior to dosing by adding 7.5 mL of the appropriate dispersing solution via a 10 mL disposable syringe, to vials containing 150 mg free base equivalents of the appropriate drug form, capping and vortex mixing for 30 seconds to form a dispersion.
The dispersion was removed from the vial using the disposable syringe and dosed to the animal via a gavage tube positioned into the stomach. The vials were rinsed twice by adding, for each of the two rinses, a separate 15 mL aliquot of water (total rinse volume=30 mL) via a 20 mL disposable syringe, capping, vortex mixing for 5 seconds, removing the wash solution from the vial using the disposable syringe and dosing to the animal via the gavage tube.
Dogs were fed about 400 g of Special Diet Services Laboratory Diet A each day and allowed water ad libitum. Whole blood (2 mL) in lithium heparin tubes were taken from the jugular vein immediately prior to dosing and at 0.5, 1, 2, 3, 4, 5, 6, 8, 12, 18, 24, 36 and 48 hours. The blood was centrifuged at 3000 rpm for 15 minutes and plasma was removed into plain blood tubes and the plasma stored at −20° C. until analysis. […]

[2] = Dissolution rate of the crystalline salt; type: physicochemical; conditions: crystalline salt compared to the free base and other salts

BCS Class (BCS classification)	bioavailability [1]	dissolution rate [2]	Structure (SMILES)
BCS Class 4			Cn1cnc2c(F)c(Nc3ccc(Br)cc3Cl)c(C(=O)NOCCO)cc21 [Compound 1, 6-(4-bromo-2-chloro-phenylamino)-7-fluoro-3-methyl-3H-benzoimidazole-5-carboxylic acid (2-hydroxy-ethoxy)-amide]
	particularly high	particularly high	Cn1cnc2c(F)c(Nc3ccc(Br)cc3Cl)c(C(=O)NOCCO)cc21 [hydrogen sulfate salt, 6-(4-bromo-2-chloro-phenylamino)-7-fluoro-3-methyl-3H-benzoimidazole-5-carboxylic acid (2-hydroxy-ethoxy)-amide hydrogen sulfate]
